A word on the IC50: it is the concentration that gives 50% inhibition.

This note sets out measurements from US20240360145A1, “PYRIMIDINE-2,4-DIAMINE DERIVATIVES AS WELL AS PREPARATION METHOD THEREFOR AND USE THEREOF” (LISEN THERAPEUTICS, INC., priority 2022, published 2024).

The test system of one series is SW620 (colon cancer). The series is described as follows: Cell viability IC50 (CellTiter-Glo), SW620. The conditions noted are these: Homo sapiens, SW-620, SW620, 72 hours. The format is cell-based. As to the method:
(§1) The cancer cell lines were cultured to the logarithmic growth phase according to conventional culture methods, and the cells were inoculated into a 384-well plate at a density of 2,000 cells/well in a volume of 40 μl/well. The concentrations of added compounds were: […], 1.67 μM, 0.56 μM, 0.19 μM, 0.062 μM, 0.021 μM, 0.0069 μM, 0.0023 μM, 0.00076 μM, and 0 μM. After 72 hours, cell viability was detected using the CellTiter-Glo™ Detection Kit.
(Cellular ATP, detected with luciferase, serves as a proxy for viable cell number.)

A further series has as its system NCI-H1650 cells. The series is described as follows: Cell viability IC50 (MTT), Gefitinib- and Osimertinib-resistant NCI-H1650 cells. The note with it: Homo sapiens, NCI-H1650, 72 h, read-out: cell viability IC50.
Series [1] has as its system various cancer cell lines. The series can be described thus: Cell viability IC50 (CellTiter-Glo), summary over various cancer cell lines. In kind it is cell-based. Here is the method:
as §1

Another series deals with DMS114 cells. The series can be described thus: Cell viability IC50 (CCK-8), small cell lung cancer cell line DMS114. The format is cell-based. The note with it: Homo sapiens, DMS-114; DMS114, CCK-8. Here is the method: Small cell lung cancer cell lines DMS114, NCI-H1688, NCI-H82, NCI-H146, and NCI-H446 cells were cultured in RPMI-1640 medium containing 10% fetal bovine serum and 1% penicillin-streptomycin. All the cells were cultured in a constant temperature incubator containing 5% CO2 at 37° C.
Small cell lung cancer is a highly heterogeneous malignant tumor, and its clinical treatment is mainly based on traditional chemotherapy (mainly platinum medicaments and etoposide). In order to study the anti-tumor activity of the compounds of the present disclosure in small cell lung cancer, the CCK-8 method was used to investigate the cell viability IC50 of compound 8 for five small cell lung cancer cell lines.

In another series the test system is LT015 primary cells. The series is described as follows: Cell viability IC50 (CCK-8), primary cells LT015 from small cell lung cancer bronchoscopic biopsy. The conditions noted are these: LT015, CCK-8. The format is cell-based. As to the method: (1) The tissue blocks obtained from the tumor patients were transferred from the preservation solution to the pre-cooled HBSS buffer containing antibiotics, and the tissue blocks were washed for three times with the pre-cooled HBSS buffer.
(2) Tissue was sheared on ice with sterile surgical instruments until no obvious tissue blocks are visible to the naked eye, the tissue fluid was collected into a 15 ml centrifuge tube, and this process takes about 5 to 10 minutes.
(3) Digestive enzymes (collagenase I, collagenase IV and neutral protease being mixed in a ratio of 1:1:1, a concentration of stock solution was 10 mg/ml, diluted with PBS buffer or HBSS buffer, and the use concentration was 1 mg/ml) were added to the centrifuge tube, and after mixing well by pipetting, the centrifuge tube was placed in a 37° C. constant temperature incubator for 1 to 2 hours.
(4) High-glucose medium was added to the centrifuge tube to stop digestion. After mixing well, the cell precipitate was collected by centrifugation, and resuspended with MBM medium (Advanced DMEM-F12+20 ng/ml bFGF+50 ng/ml EGF+1% ITS-X+2% B27+10 μMY-27632+1% PS). The cell suspension was placed in a Matrigel-coated 24-well plate and cultured for 5 to 7 days. When the cell density in the well plate reaches 80-90%, the cells were sub-cultured into a 6 cm cell culture dish, and when they grew to a density of 80% to 90%, the cells were cryopreserved for preservation.
(1) Primary cells from lung cancer pleural effusion within 5 generations were cultured to the logarithmic growth phase. When the confluence reached about 90%, the cells were digested with 0.25% trypsin, and complete culture medium was added to collect the cells. After centrifugation at room temperature, the supernatant was discarded, and the cell precipitate was resuspended with fresh complete culture medium. After counting, the cells were placed at room temperature for later use. The cells were inoculated into a 384-well plate at a density of 2000 cells/well with a volume of 40 μl/well. The wells at the outermost circle of the plate were not inoculated with cells, and instead, added with sterile water to reduce evaporation of the culture medium.
(2) After overnight culture of the cells, the medium was discarded, and a fresh medium containing different concentrations of compounds was added at 200 μl/well. The dilution method of the compound was as follows: first the compound with the highest concentration of 10 μM was prepared, and then the compound was diluted for 3 times in sequence. […] At the same time, a blank control group was set up, in which only an equal volume of culture medium was added without adding cells. Five replicate wells were set up for each group. The cells were placed in the incubator for further culture.
(3) After 72 hours, 8 μl of CCK-8 solution, which was double-diluted with 10 mM PBS, was added to each well, and the cells were shaken and placed in an incubator at 37° C. for further culture for 2 hours.
(4) The light absorbance value at 450 nm was read using a microplate reader, and the IC50 was calculated according to the absorbance value. The calculation method was the same as above.
(1) Sample information: PE039, PE052, and PE062 were all primary cell samples from pleural effusion of patients with small cell lung cancer, and LT015 was a primary cell sample from bronchoscopic biopsy of a patient with small cell lung cancer.
(2) CCK-8 detection was used to detect the IC50 values of different medicaments (compounds).

Series [2] concerns small cell lung cancer cell line H446 cells. The series is described as follows: In vivo antitumor effect in mice bearing small cell lung cancer cell line H446 cells (CDX model).
Description: H446 cells in the logarithmic growth phase were suspended in PBS solution, and then inoculated subcutaneously in the right forelimb of nude mice. The cell density was about 2×10^8 cells/mL, and each mouse was inoculated with 0.1 mL of the cell suspension, for a total of 80 mice. When the subcutaneous tumor grew to range from 50 mm^3 to 100 mm^3, 40 tumor-bearing mice were randomly divided into groups and numbered, and drug administration began.
(1) Vehicle blank control group: 5% DMSO+20% PEG 300+75% saline (normal saline);
The cycle repeated twice, and no medication for the final 6 days.
All tumor-bearing mice were killed after 20 days.

Description for NCI-H1650 cells: 1% sodium pyruvate was additionally added when culturing NCI-H1975 cells. All the cells were cultured in a constant temperature incubator containing 5% CO2 at 37° C.
(1) The cells were cultured to the logarithmic growth phase. […] After centrifugation at room temperature, the supernatant was discarded, and the cell precipitate was resuspended with fresh complete medium. After counting, the cells were placed at room temperature for later use.
(2) The cells were inoculated into a 96-well plate at a density of 4,000 cells/well with a volume of 100 μl/well. The wells at the outermost circle of the plate were not inoculated with cells, and instead, added with sterile water to reduce evaporation of the culture medium.
(3) After overnight culture of the cells, the medium was discarded, and a fresh medium containing different concentrations of compounds was added at 200 μl/well. The dilution method of the compound was as follows: first the compound with the highest concentration of 10 μM was prepared, and then the compound was diluted for 3 times in sequence. […] At the same time, a blank control group was set up, in which only an equal volume of culture medium was added without adding cells. Six replicate wells were set up for each group. The cells were placed in the incubator for further culture.
(4) After 72 hours, 20 μl of MTT solution (5 mg/ml) sterilized by filtration through a 0.22 m filter membrane was added to each well, and the cells were cultured in an incubator at 37° C. for another 4 hours.
(6) IC50 of the compounds for different cells was calculated based on the light absorption value of each group. Specifically, the absorbance value under treatment with different concentrations of compounds was first subtracted from the absorbance value of the blank well, and then the absorbance value of the 0 μM group was taken as 100% to calculate the cell survival rate after treatment with different concentrations of compounds. That is, survival rate=((ODexperimental well−ODblank control)/(ODnegative control−ODblank control))×100%. IC50 values were calculated based on the survival rate and concentration of the compound.

As to `CN1CC2CCC(C1)N2Cc1ccc(Nc2ncc(Cl)c(Nc3ccccc3S(=O)(=O)N(C)C)n2)cc1` [Compound 8, 2-((5-chloro-2-((4-((3-methyl-3,8-diazabicyclo[3.2.1]octan-8-yl)methyl)phenyl)amino)pyrimidin-4-yl)amino)-N,N-dimethylbenzenesulfonamide], the IC50 was 101 nM in the series with SW620 (colon cancer); 83.6 nM with NCI-H1650 cells; < 200 nM in series [1] (colon cancer, liver cancer, cervical cancer, ovarian cancer, and esophageal cancer); < 100 nM in series [1] (thyroid cancer, breast cancer, bladder cancer, glioma, pancreatic cancer, melanoma, and gastric cancer); 6.03 nM in the series with DMS114 cells; 6.11 nM in the series on LT015 primary cells. For the same compound, the toxicity entry in series [2] (H446 CDX nude mice, 15 mg/kg, judged from body weight) is given as “not significant”. In addition, in series [2] (H446 CDX nude mice, intraperitoneal injection, 20 days), the “inhibitory effect on tumor volume growth compared with blank control (FIG. 1)” value was “significantly inhibited the growth of tumor volume”. Moreover, the animals survived in series [2] (H446 CDX nude mice, intraperitoneal injection, 20 days, compound 8 and TP-0903 15 mg/kg once a day for 13 days, Cisplatin 2.5 mg/kg + Etoposide 4 mg/kg cycles) was 11 out of 12. Further, the “body weight changes of nude mice (FIG. 2)” value in series [2] (during the drug administration period, recovered rapidly after drug withdrawal) is reported as “slight decrease in body weight”.
